Assays:
[1] = target: T1, aggregated synthetic Aβ40 (Homo sapiens, UniProt P05067); experiment: Thiazin-red R displacement fluorescence assay on aggregated A-beta; format: binding; details: displacement of Thiazin-red R from aggregated Aβ40; compound 0.3 nM to 10000 nM; 30 min room temperature; Ex 531 nm/Em 595 nm
T1 construct: Synthetic Aβ40 is aggregated at a concentration of 50 μM
Experimental: (§1) Assay for Determination of […] for Tau and A-Beta
(§2) Recombinant human-microtubule associated protein Tau purified from E. coli is aggregated at a concentration of 5 μM with Arachidonic Acid (100 μM) in Tris 10 mM pH8, 24 h at 37° C. Synthetic Aβ40 is aggregated at a concentration of 50 μM with Arachidonic Acid (100 μM) in Tris 10 mM pH8, for three days at 37° C., under shaking at 150 rpm.
(§3) A saturation analysis of Thiazin-red R to the aggregated proteins is done to determine the affinity (Kd) of the Thiazin-red R to the aggregated protein.
(§4) Thiazin-red R will be added at the concentration corresponding to the Kd to the respective aggregated protein binding site, to induce a fluorescent signal that can be inhibited by the addition of a displacer compound.
(§5) In parallel, auto fluorescence of the compound is measured together with the aggregated proteins, but without Thiazin-red R. As negative control, ligand and aggregated protein is used and as positive control, Thiazin-red R, reference compound with known activity and aggregated protein is used.
(§6) Assay is performed in Perkin Elmer OptiPlate 384, black, 45 ul assay volume, assay buffer is DPBS no CaCl2 no MgCl2 (GIBCO N. 14020). Tested compounds are diluted in DMSO and 2 μl is added to the assay ([…]). Assay is started by the addition of the aggregated protein (competitive condition). Plates are shortly shacked (1 min with Sterico variomag teleshake) and incubated for 30 min at room temperature. Measurement are done with En:Vision (Perkin Elmer), at Excitation 531 nm/Emission 595 nm.

[2] = target: T2, aggregated recombinant human-microtubule associated protein Tau (Homo sapiens, UniProt P10636); experiment: Thiazin-red R displacement fluorescence assay on aggregated Tau; format: binding; details: displacement of Thiazin-red R from aggregated Tau; compound 0.3 nM to 10000 nM; 30 min room temperature; Ex 531 nm/Em 595 nm
T2 construct: Recombinant human-microtubule associated protein Tau purified from E. coli is aggregated at a concentration of 5 μM with Arachidonic Acid (100 μM) in Tris 10 mM pH8, 24 h at 37° C
Experimental: as §1, §2, §3, §4, §5, §6

T2 sequence (P10636 whole entry): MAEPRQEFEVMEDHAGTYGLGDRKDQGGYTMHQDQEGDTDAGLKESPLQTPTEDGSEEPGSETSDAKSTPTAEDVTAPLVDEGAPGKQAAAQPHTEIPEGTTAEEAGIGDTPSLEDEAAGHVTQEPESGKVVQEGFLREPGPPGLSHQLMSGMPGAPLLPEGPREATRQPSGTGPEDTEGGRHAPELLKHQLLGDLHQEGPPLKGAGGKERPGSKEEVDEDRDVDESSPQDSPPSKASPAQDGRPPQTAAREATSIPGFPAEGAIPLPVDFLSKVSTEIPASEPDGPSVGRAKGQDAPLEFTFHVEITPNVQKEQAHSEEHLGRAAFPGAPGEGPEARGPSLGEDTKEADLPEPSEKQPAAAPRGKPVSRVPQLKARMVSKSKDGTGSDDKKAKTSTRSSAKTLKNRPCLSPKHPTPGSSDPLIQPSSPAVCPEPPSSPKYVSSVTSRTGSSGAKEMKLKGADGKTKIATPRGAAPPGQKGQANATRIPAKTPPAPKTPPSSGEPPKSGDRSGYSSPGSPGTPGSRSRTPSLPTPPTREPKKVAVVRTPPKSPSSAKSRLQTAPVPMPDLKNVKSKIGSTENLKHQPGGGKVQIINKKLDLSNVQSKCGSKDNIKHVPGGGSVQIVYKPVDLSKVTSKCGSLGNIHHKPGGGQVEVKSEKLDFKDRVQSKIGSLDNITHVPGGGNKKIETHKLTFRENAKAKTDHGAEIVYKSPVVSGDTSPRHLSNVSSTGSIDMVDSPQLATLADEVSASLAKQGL
T1 sequence (P05067 672-711 limits assumed): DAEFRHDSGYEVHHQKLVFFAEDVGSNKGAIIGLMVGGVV

| Structure (SMILES) | IC50 [1] [nM] | IC50 [2] [nM] |
| --- | --- | --- |
| COc1cc(/C=c2\sc3nc(-c4cccc(C(F)(F)F)c4)cn3c2=O)cc(OC)c1O [Example 19, 2-[1-(4-Hydroxy-3,5-dimethoxy-phenyl)-meth-(Z)-ylidene]-6-(3-trifluoromethyl-phenyl)-imidazo[2,1-b]thiazol-3-one] | 115 | 1 |
| COc1cc(/C=c2\sc3nc(-c4cccc(C)c4)cn3c2=O)cc(OC)c1O [Example 20, 2-[1-(4-Hydroxy-3,5-dimethoxy-phenyl)-meth-(Z)-ylidene]-6-m-tolyl-imidazo[2,1-b]thiazol-3-one] | 20 | 3 |
| COc1cc(/C=c2\sc3nc(-c4cccc(OC(F)(F)F)c4)cn3c2=O)cc(Cl)c1O [Example 22, 2-[1-(3-Chloro-4-hydroxy-5-methoxy-phenyl)-meth-(Z)-ylidene]-6-(3-trifluoromethoxy-phenyl)-imidazo[2,1-b]thiazol-3-one] | 198 | 3 |
| COc1cc(/C=c2\sc3nc(-c4ccc(C(=O)N(C)CCOCCF)cc4)cn3c2=O)cc(Cl)c1O [Example 23, 4-{2-[1-(3-Chloro-4-hydroxy-5-methoxy-phenyl)-meth-(Z)-ylidene]-3-oxo-2,3-dihydro-imidazo[2,1-b]thiazol-6-yl}-N-[2-(2-fluoro-ethoxy)-ethyl]-N-methyl-benzamide] | 328 | 26 |
| COc1cc(/C=c2\sc3nc(-c4cccc(C(F)(F)F)c4)cn3c2=O)cc(Cl)c1O [Example 24, 2-[1-(3-Chloro-4-hydroxy-5-methoxy-phenyl)-meth-(Z)-ylidene]-6-(3-trifluoromethyl-phenyl)-imidazo[2,1-b]thiazol-3-one] | 123 | 3 |
| CCOc1cc(/C=c2\sc3nc(-c4ccc(Cl)cc4)cn3c2=O)cc(OC)c1O [Example 26, 6-(4-Chloro-phenyl)-2-[1-(3-ethoxy-4-hydroxy-5-methoxy-phenyl)-meth-(Z)-ylidene]-imidazo[2,1-b]thiazol-3-one] | 4 | 2 |
| COc1cc(/C=c2\sc3nc(-c4ccc(Cl)cc4)cn3c2=O)cc(OCCF)c1O [Example 27, 6-(4-Chloro-phenyl)-2-[1-(3-(2-fluoro-ethoxy)-4-hydroxy-5-methoxy-phenyl)-meth-(Z)-ylidene]-imidazo[2,1-b]thiazol-3-one] | 7 | 1 |
| COc1cc(/C=c2\sc3nc(-c4ccc(C(F)(F)F)c(F)c4)cn3c2=O)cc(Cl)c1O [Example 28, 2-[1-(3-Chloro-4-hydroxy-5-methoxy-phenyl)-meth-(Z)-ylidene]-6-(3-fluoro-4-trifluoromethyl-phenyl)-imidazo[2,1-b]thiazol-3-one] | 1060 | 23 |
| COc1cc(/C=c2\sc3nc(-c4ccc(C(F)(F)F)c(F)c4)cn3c2=O)cc(OC)c1O [Example 29] | 43 | 11 |
| COc1cc(/C=c2\sc3nc(-c4ccc(Cl)cc4)cn3c2=O)cc(OC(C)C)c1O [Example 30, 6-(4-Chloro-phenyl)-2-[1-(4-hydroxy-3-isopropoxy-5-methoxy-phenyl)-meth-(Z)-ylidene]-imidazo[2,1-b]thiazol-3-one] | 16 | 6 |
| CCCOc1cc(/C=c2\sc3nc(-c4ccc(Cl)cc4)cn3c2=O)cc(OC)c1O [Example 31, 6-(4-Chloro-phenyl)-2-[1-(4-hydroxy-3-methoxy-5-propoxy-phenyl)-meth-(Z)-ylidene]-imidazo[2,1-b]thiazol-3-one] | 12 | 3 |
| COc1cc(/C=c2\sc3nc(-c4ccc(Cl)cc4)cn3c2=O)cc(C)c1O [Example 32, 6-(4-Chloro-phenyl)-2-[1-(4-hydroxy-3-methoxy-5-methyl-phenyl)-meth-(Z)-ylidene]-imidazo[2,1-b]thiazol-3-one] | 39 | 7 |
| CCCOc1cc(/C=c2\sc3nc(-c4cccc(OC(F)(F)F)c4)cn3c2=O)cc(OC)c1O [Example 33, 2-[1-(4-Hydroxy-3-methoxy-5-propoxy-phenyl)-meth-(Z)-ylidene]-6-(3-trifluoromethoxy-phenyl)-imidazo[2,1-b]thiazol-3-one] | 256 | 25 |
| COc1cc(/C=c2\sc3nc(-c4cccc(OC(F)(F)F)c4)cn3c2=O)cc(OC(C)C)c1O [Example 34, 2-[1-(4-Hydroxy-3-methoxy-5-isopropoxy-phenyl)-meth-(Z)-ylidene]-6-(3-trifluoromethoxy-phenyl)-imidazo[2,1-b]thiazol-3-one] | 437 | 26 |
| COc1cc(/C=c2\sc3nc(-c4cccc(OC(F)(F)F)c4)cn3c2=O)ccc1O [Example 36, 2-[1-(4-Hydroxy-3-methoxy-phenyl)-meth-(Z)-ylidene]-6-(3-trifluoromethoxy-phenyl)-imidazo[2,1-b]thiazol-3-one] | > 10000 | 401 |
| COc1cc(/C=c2\sc3nc(-c4cccc(OC(F)(F)F)c4)cn3c2=O)cc(Br)c1O [Example 37, 2-[1-(3-Bromo-4-hydroxy-5-methoxy-phenyl)-meth-(Z)-ylidene]-6-(3-trifluoromethoxy-phenyl)-imidazo[2,1-b]thiazol-3-one] | 552 | 6 |
| COc1cc(/C=c2\sc3nc(-c4cccc(Cl)c4)cn3c2=O)cc(F)c1O [Example 39, 2-[1-(3-fluoro-4-hydroxy-5-methoxy-phenyl)-meth-(Z)-ylidene]-6-(3-chloro-phenyl)-imidazo[2,1-b]thiazol-3-one] | 412 | 11 |
| CCc1cc(/C=c2\sc3nc(-c4cccc(OC(F)(F)F)c4)cn3c2=O)cc(OC)c1O [Example 40, 2-[1-(3-Ethyl-4-hydroxy-5-methoxy-phenyl)-meth-(Z)-ylidene]-6-(3-trifluoromethoxy-phenyl)-imidazo[2,1-b]thiazol-3-one] | > 10000 | 701 |
| COc1cc(/C=c2\sc3nc(-c4cccc(C(F)(F)F)c4)cn3c2=O)cc(F)c1O [Example 41, 2-[1-(3-fluoro-4-hydroxy-5-methoxy-phenyl)-meth-(Z)-ylidene]-6-(3-(trifluoromethyl)-phenyl)-imidazo[2,1-b]thiazol-3-one] | 1810 | 16 |
| COc1cc(/C=c2\sc3nc(-c4ccc(F)c(C(F)(F)F)c4)cn3c2=O)cc(F)c1O [Example 42, 2-[1-(3-fluoro-4-hydroxy-5-methoxy-phenyl)-meth-(Z)-ylidene]-6-(4-fluoro-3-(trifluoromethyl)-phenyl)-imidazo[2,1-b]thiazol-3-one] | 198 | 24 |
| COc1cc(/C=c2\sc3nc(-c4ccccc4)cn3c2=O)cc(F)c1O [Example 43, 2-[1-(3-fluoro-4-hydroxy-5-methoxy-phenyl)-meth-(Z)-ylidene]-6-phenyl-imidazo[2,1-b]thiazol-3-one] | 2320 | 51 |
| COc1cc(/C=c2\sc3nc(-c4cccc(C#N)c4)cn3c2=O)cc(Cl)c1O [Example 44, 3-{2-[1-(3-Chloro-4-hydroxy-5-methoxy-phenyl)-meth-(Z)-ylidene]-3-oxo-2,3-dihydro-imidazo[2,1-b]thiazol-6-yl}-benzonitrile] | 24000 | 6 |
| COc1cc(/C=c2\sc3nc(-c4cccc(C#N)c4)cn3c2=O)cc(Br)c1O [Example 45, 3-{2-[1-(3-Bromo-4-hydroxy-5-methoxy-phenyl)-meth-(Z)-ylidene]-3-oxo-2,3-dihydro-imidazo[2,1-b]thiazol-6-yl}-benzonitrile] | > 10000 | 25 |
| COc1cc(/C=c2\sc3nc(-c4ccc(F)c(C(F)(F)F)c4)cn3c2=O)cc(Br)c1O [Example 46, 2-[1-(3-bromo-4-hydroxy-5-methoxy-phenyl)-meth-(Z)-ylidene]-6-(4-fluoro-3-(trifluoromethyl)-phenyl)-imidazo[2,1-b]thiazol-3-one] | 5910 | 28 |
| COc1cccc(-c2cn3c(=O)/c(=C/c4cc(F)c(O)c(OC)c4)sc3n2)c1 [Example 47, 2-[1-(3-Fluoro-4-hydroxy-5-methoxy-phenyl)-meth-(Z)-ylidene]-6-(3-methoxy-phenyl)-imidazo[2,1-b]thiazol-3-one] | 540 | 17 |
| COc1cccc(-c2cn3c(=O)/c(=C/c4cc(F)c(O)c(OC)c4)sc3n2)n1 [Example 48, 2-[1-(3-Fluoro-4-hydroxy-5-methoxy-phenyl)-meth-(Z)-ylidene]-6-(6-methoxy-pyridin-2-yl)-imidazo[2,1-b]thiazol-3-one] | 1790 | 20 |
| COc1cc(/C=c2\sc3nc(-c4cc(F)cc(F)c4)cn3c2=O)cc(Cl)c1O [Example 49, 2-[1-(3-Chloro-4-hydroxy-5-methoxy-phenyl)-meth-(Z)-ylidene]-6-(3,5-difluoro-phenyl)-imidazo[2,1-b]thiazol-3-one] | 1370 | 16 |
